Measured values: patent publication US20120172598A1, “COMPOUNDS HAVING TAFIa INHIBITORY ACTIVITY” (TAISHO PHARMACEUTICAL CO., LTD., priority 2009, published 2012)
Counter-ions that a name gives are not always drawn.

Target: T1, TAFIa (Homo sapiens, UniProt Q96IY4)
T1 construct: purchased Enzyme Research Laboratories
T1 sequence (Q96IY4 115-423): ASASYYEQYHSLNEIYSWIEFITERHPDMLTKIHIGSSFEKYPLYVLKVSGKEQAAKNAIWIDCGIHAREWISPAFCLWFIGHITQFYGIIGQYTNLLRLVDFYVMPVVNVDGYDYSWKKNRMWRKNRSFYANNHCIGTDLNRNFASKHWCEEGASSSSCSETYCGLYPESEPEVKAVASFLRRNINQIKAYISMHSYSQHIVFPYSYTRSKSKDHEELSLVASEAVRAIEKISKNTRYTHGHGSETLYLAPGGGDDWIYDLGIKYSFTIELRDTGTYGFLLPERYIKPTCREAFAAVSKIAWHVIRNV
Experiment: TAFIa inhibition test (Hip-Arg substrate, absorbance at 405 nm)
Type: biochemical
Settings: TAFI activated with thrombin/thrombomodulin, 40 minutes at room temperature, read-out: TAFIa inhibitory activity IC50
Description: Test 1 [TAFIa Inhibition Test]
Compounds of the present invention were measured for their TAFIa inhibitory activity as follows based on the method described in Thromb. Haemost. 79, 371-377 (1998).
(a) Preparation of TAFIa Solution
To 450 μl of TAFI (the product of Enzyme Research Laboratories whose concentration was adjusted to 18 μg/ml with buffer A: 100 mM Tris-HCl, pH 7.4), 45 μl of a thrombomodulin solution (a rabbit lung derived thrombomodulin produced by American Diagnostica whose concentration was adjusted to 1 μg/ml with buffer B: 50 mM Tris-HCl, pH 7.5, containing 0.15 M NaCl) and 45 μl of a thrombin solution (a freeze-dried human plasma derived thrombin produced by Sigma and dissolved in water to have a concentration of 30 μU/ml) were added and the mixture was left to stand at room temperature for 25 minutes.
(b) Method of Measuring TAFIa Inhibitory Activity […]
Subsequently, a color former (1% cyanuric chloride in 1,4-dioxane) was added in an amount of 50 μl to each well and the plate was left to stand for 3 minutes at room temperature, then absorbance at 405 nm was measured with a microplate reader (Spectramax M2 of Molecular Devices). […]
For two compounds of the present invention, the above test was conducted and on the basis of the results of measurements, TAFIa inhibitory activity was calculated to give the results shown in Table 2.

Compound | IC50 [nM]
N[C@H]1CCN([C@@H](Cc2ncn3c2CCc2ccccc2-3)C(=O)O)C1 [Compound 1, (2S)-2-[(3S)-3-aminopyrrolidin-1-yl]-3-(4,5-dihydroimidazo[1,5-a]quinolin-3-yl)propanoic acid trihydrochloride] | 36
Cc1ccc2c(c1)CCc1c(C[C@@H](C(=O)O)N3CC[C@H](N)C3)ncn1-2 [Compound 2, (2S)-2-[(3S)-3-aminopyrrolidin-1-yl]-3-(7-methyl-4,5-dihydroimidazo[1,5-a]quinolin-3-yl)propanoic acid trihydrochloride] | 23
